According to PMC6891286, “Towards the Development of an In vivo Chemical Probe for Cyclin G Associated Kinase (GAK)” (Molecules, 2019):

Tests used:
Assay in all cases: KINOMEscan
Assay type in all cases: binding
Conditions in all cases: 35 at 1 µM; read-out: % inhibition
[1] = molecular target: T1, ABL1(H396P)-phosphorylated (Homo sapiens, UniProt P00519, H396P)
T1 construct: purchased Eurofins DiscoverX (KINOMEscan)
Method: (§1) KinomeScan Assay on 35 was performed as previously described at EuroFins DiscoverX (Fremont, CA, USA).

AKT2 = molecular target: T2, AKT2 (Homo sapiens, UniProt P31751)
T2 construct: purchased Eurofins DiscoverX (KINOMEscan)
Method: as §1

CAMK1G = molecular target: T3, CAMK1G (Homo sapiens, UniProt Q96NX5)
T3 construct: purchased Eurofins DiscoverX (KINOMEscan)
Method: as §1

CAMK4 = molecular target: T4, CAMK4 (Homo sapiens, UniProt Q16566)
T4 construct: purchased Eurofins DiscoverX (KINOMEscan)
Method: as §1

CDK11 = molecular target: T5, CDK11 (Homo sapiens, UniProt Q9BWU1)
T5 construct: purchased Eurofins DiscoverX (KINOMEscan)
Method: as §1

CDK3 = molecular target: T6, CDK3 (Homo sapiens, UniProt Q00526)
T6 construct: purchased Eurofins DiscoverX (KINOMEscan)
Method: as §1

CLK2 = molecular target: T7, CLK2 (Homo sapiens, UniProt P49760)
T7 construct: purchased Eurofins DiscoverX (KINOMEscan)
T7 sequence (P49760 whole entry): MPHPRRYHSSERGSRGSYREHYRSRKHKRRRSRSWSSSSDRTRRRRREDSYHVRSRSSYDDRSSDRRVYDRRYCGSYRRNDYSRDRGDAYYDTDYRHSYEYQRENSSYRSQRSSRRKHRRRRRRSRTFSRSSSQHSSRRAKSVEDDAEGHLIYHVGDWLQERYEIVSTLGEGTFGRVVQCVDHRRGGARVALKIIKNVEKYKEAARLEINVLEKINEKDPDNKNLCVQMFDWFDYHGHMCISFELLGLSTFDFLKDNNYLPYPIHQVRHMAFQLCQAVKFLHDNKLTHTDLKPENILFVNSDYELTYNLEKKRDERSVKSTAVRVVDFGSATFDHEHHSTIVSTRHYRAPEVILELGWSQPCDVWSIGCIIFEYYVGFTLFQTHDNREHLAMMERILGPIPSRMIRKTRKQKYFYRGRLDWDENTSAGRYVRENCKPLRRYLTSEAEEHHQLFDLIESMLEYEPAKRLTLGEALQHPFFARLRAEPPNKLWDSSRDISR
Method: as §1

CLK4 = molecular target: T8, CLK4 (Homo sapiens, UniProt Q9HAZ1)
T8 construct: purchased Eurofins DiscoverX (KINOMEscan)
Method: as §1

EGFR(L861Q) = molecular target: T9, EGFR(L861Q) (Homo sapiens, UniProt P00533, L861Q)
T9 construct: purchased Eurofins DiscoverX (KINOMEscan)
Method: as §1

ERK3 = molecular target: T10, ERK3 (Homo sapiens, UniProt Q16659)
T10 construct: purchased Eurofins DiscoverX (KINOMEscan)
Method: as §1

ERK5 = molecular target: T11, ERK5 (Homo sapiens, UniProt Q13164)
T11 construct: purchased Eurofins DiscoverX (KINOMEscan)
Method: as §1

ERN1 = molecular target: T12, ERN1 (Homo sapiens, UniProt O75460)
T12 construct: purchased Eurofins DiscoverX (KINOMEscan)
Method: as §1

GSK3B = molecular target: T13, GSK3B (Homo sapiens, UniProt P49841)
T13 construct: purchased Eurofins DiscoverX (KINOMEscan)
T13 sequence (P49841 whole entry): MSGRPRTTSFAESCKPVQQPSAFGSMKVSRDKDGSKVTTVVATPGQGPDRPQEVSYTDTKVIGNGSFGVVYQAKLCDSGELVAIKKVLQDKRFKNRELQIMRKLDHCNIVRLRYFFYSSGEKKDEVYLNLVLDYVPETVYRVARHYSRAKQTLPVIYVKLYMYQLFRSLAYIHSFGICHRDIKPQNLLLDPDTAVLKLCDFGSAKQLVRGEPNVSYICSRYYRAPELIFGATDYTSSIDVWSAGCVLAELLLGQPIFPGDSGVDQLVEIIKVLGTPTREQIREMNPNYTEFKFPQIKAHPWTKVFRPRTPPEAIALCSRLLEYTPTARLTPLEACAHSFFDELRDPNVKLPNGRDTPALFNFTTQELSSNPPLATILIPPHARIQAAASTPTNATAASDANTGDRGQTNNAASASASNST
Method: as §1

IKK-epsilon = molecular target: T14, IKK-epsilon (Homo sapiens, UniProt Q14164)
T14 construct: purchased Eurofins DiscoverX (KINOMEscan)
Method: as §1

IRAK4 = molecular target: T15, IRAK4 (Homo sapiens, UniProt Q9NWZ3)
T15 construct: purchased Eurofins DiscoverX (KINOMEscan)
Method: as §1

ITK = molecular target: T16, ITK (Homo sapiens, UniProt Q08881)
T16 construct: purchased Eurofins DiscoverX (KINOMEscan)
Method: as §1

[2] = molecular target: T17, JAK1(JH2domain-pseudokinase) (Homo sapiens, UniProt P23458)
T17 construct: JAK1(JH2domain-pseudokinase); purchased Eurofins DiscoverX (KINOMEscan)
Method: as §1

KIT(A829P) = molecular target: T18, KIT(A829P) (Homo sapiens, UniProt P10721, A829P)
T18 construct: purchased Eurofins DiscoverX (KINOMEscan)
T18 sequence (P10721 26-976 A829P): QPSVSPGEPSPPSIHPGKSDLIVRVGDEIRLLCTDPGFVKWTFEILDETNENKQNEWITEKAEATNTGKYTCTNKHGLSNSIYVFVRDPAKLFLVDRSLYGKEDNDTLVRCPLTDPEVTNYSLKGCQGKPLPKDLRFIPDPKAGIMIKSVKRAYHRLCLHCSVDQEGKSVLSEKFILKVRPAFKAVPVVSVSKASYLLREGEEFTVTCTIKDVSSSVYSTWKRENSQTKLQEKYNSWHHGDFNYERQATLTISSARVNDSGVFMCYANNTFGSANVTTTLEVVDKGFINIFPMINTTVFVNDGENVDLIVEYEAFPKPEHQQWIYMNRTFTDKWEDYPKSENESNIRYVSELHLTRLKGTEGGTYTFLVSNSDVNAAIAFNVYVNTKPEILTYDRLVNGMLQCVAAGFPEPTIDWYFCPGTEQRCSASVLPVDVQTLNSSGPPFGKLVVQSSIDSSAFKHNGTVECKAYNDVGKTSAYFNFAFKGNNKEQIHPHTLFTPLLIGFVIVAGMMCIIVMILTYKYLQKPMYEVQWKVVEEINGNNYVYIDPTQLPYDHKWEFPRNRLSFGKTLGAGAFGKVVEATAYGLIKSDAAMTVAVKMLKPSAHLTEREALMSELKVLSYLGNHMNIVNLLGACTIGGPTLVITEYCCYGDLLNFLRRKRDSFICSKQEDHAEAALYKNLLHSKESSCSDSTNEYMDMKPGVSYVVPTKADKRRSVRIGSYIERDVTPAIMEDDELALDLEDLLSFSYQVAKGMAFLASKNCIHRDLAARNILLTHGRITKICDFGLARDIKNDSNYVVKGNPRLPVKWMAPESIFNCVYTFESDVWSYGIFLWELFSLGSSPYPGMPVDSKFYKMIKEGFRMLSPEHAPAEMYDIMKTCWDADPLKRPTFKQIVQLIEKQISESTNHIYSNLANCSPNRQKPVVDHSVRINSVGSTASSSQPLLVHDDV
Method: as §1

KIT(V559D,T670I) = molecular target: T19, KIT(V559D,T670I) (Homo sapiens, UniProt P10721, T670I/V559D)
T19 construct: purchased Eurofins DiscoverX (KINOMEscan)
T19 sequence (P10721 26-976 V559D/T670I): as the sequence (P10721 26-976 A829P) above, with V534D, T645I, P804A counted along it
Method: as §1

MAP3K4 = molecular target: T20, MAP3K4 (Homo sapiens, UniProt Q9Y6R4)
T20 construct: purchased Eurofins DiscoverX (KINOMEscan)
Method: as §1

MEK1 = molecular target: T21, MEK1 (Homo sapiens, UniProt Q02750)
T21 construct: purchased Eurofins DiscoverX (KINOMEscan)
T21 sequence (Q02750 whole entry): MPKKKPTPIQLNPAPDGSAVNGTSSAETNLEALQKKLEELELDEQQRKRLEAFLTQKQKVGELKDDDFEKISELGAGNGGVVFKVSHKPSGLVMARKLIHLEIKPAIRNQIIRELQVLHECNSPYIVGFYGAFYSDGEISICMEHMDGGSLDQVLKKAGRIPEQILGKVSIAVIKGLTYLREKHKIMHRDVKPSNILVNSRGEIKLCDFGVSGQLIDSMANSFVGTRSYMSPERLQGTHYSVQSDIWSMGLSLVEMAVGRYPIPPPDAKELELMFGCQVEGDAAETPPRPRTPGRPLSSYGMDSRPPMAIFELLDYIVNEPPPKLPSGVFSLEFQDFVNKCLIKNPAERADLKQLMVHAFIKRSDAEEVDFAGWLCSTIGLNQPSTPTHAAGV
Method: as §1

MKNK1 = molecular target: T22, MKNK1 (Homo sapiens, UniProt Q9BUB5)
T22 construct: purchased Eurofins DiscoverX (KINOMEscan)
Method: as §1

MYO3B = molecular target: T23, MYO3B (Homo sapiens, UniProt Q8WXR4)
T23 construct: purchased Eurofins DiscoverX (KINOMEscan)
Method: as §1

PAK1 = molecular target: T24, PAK1 (Homo sapiens, UniProt Q13153)
T24 construct: purchased Eurofins DiscoverX (KINOMEscan)
T24 sequence (Q13153 whole entry): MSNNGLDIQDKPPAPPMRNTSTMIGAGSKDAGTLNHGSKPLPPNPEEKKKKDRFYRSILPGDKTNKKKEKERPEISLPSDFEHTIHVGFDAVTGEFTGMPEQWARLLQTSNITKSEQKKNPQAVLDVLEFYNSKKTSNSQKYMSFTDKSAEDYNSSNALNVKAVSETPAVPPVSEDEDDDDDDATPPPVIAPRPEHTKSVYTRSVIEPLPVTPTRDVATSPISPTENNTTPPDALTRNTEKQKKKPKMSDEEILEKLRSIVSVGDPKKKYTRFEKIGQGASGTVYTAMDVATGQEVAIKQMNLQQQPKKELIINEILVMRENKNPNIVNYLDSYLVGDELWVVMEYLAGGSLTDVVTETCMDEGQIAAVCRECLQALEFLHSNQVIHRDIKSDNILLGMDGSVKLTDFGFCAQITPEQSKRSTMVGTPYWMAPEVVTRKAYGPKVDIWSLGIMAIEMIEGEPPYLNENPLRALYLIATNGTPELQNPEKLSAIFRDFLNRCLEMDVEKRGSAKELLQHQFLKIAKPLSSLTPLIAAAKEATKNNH
Method: as §1

PAK6 = molecular target: T25, PAK6 (Homo sapiens, UniProt Q9NQU5)
T25 construct: purchased Eurofins DiscoverX (KINOMEscan)
Method: as §1

PHKG1 = molecular target: T26, PHKG1 (Homo sapiens, UniProt Q16816)
T26 construct: purchased Eurofins DiscoverX (KINOMEscan)
Method: as §1

PIK3CA = molecular target: T27, PIK3CA (Homo sapiens, UniProt P42336)
T27 construct: purchased Eurofins DiscoverX (KINOMEscan)
T27 sequence (P42336 whole entry): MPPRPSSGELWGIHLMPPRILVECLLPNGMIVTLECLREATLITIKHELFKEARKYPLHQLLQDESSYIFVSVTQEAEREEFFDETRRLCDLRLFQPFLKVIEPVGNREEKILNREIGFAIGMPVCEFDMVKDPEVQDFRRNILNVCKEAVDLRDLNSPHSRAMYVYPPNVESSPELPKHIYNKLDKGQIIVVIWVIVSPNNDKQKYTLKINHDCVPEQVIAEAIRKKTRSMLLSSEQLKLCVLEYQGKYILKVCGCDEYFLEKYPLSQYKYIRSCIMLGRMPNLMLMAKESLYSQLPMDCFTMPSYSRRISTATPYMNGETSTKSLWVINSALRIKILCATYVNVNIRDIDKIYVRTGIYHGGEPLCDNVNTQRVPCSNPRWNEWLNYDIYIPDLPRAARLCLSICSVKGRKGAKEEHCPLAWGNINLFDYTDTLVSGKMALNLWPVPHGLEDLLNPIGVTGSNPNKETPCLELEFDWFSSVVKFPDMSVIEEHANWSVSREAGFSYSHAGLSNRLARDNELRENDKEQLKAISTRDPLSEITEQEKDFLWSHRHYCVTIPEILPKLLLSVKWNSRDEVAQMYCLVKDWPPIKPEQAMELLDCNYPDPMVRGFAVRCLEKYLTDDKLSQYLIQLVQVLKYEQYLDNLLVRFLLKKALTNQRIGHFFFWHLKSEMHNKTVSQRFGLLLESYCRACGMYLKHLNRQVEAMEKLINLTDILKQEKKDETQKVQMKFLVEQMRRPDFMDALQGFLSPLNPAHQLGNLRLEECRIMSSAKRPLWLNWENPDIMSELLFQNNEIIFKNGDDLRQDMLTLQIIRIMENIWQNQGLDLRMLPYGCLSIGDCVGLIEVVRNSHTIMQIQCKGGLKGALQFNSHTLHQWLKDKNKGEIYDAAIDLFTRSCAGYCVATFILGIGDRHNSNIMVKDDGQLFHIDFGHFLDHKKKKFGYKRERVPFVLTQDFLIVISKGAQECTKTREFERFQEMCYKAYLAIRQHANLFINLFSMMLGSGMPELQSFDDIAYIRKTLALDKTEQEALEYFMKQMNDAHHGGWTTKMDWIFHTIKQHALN
Method: as §1

PRKCH = molecular target: T28, PRKCH (Homo sapiens, UniProt P24723)
T28 construct: purchased Eurofins DiscoverX (KINOMEscan)
T28 sequence (P24723 whole entry): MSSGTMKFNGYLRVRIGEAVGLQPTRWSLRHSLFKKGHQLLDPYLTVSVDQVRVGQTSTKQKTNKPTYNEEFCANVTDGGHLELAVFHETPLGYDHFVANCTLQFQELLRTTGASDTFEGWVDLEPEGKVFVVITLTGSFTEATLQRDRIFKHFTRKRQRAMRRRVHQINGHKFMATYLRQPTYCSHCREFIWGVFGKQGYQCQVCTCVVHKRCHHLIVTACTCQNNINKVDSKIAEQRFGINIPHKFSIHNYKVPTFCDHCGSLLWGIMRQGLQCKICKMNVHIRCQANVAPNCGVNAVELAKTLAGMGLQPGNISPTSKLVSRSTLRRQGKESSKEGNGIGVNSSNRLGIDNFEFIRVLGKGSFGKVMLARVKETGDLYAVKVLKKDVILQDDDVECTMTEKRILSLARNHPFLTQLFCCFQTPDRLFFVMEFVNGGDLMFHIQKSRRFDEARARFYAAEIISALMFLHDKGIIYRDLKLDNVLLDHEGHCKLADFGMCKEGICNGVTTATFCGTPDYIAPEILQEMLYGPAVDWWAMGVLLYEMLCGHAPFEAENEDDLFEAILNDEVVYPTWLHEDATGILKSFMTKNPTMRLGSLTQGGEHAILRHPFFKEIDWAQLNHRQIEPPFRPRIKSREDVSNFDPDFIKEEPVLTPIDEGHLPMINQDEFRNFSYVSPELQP
Method: as §1

PRKD2 = molecular target: T29, PRKD2 (Homo sapiens, UniProt Q9BZL6)
T29 construct: purchased Eurofins DiscoverX (KINOMEscan)
Method: as §1

PRKG1 = molecular target: T30, PRKG1 (Homo sapiens, UniProt Q13976)
T30 construct: purchased Eurofins DiscoverX (KINOMEscan)
Method: as §1

PRKR = molecular target: T31, PRKR (Homo sapiens, UniProt P19525)
T31 construct: purchased Eurofins DiscoverX (KINOMEscan)
Method: as §1

RET(M918T) = molecular target: T32, RET(M918T) (Homo sapiens, UniProt P07949, M918T)
T32 construct: purchased Eurofins DiscoverX (KINOMEscan)
Method: as §1

RIOK2 = molecular target: T33, RIOK2 (Homo sapiens, UniProt Q9BVS4)
T33 construct: purchased Eurofins DiscoverX (KINOMEscan)
Method: as §1

RIPK4 = molecular target: T34, RIPK4 (Homo sapiens, UniProt P57078)
T34 construct: purchased Eurofins DiscoverX (KINOMEscan)
Method: as §1

SNARK = molecular target: T35, SNARK (Homo sapiens, UniProt Q9H093)
T35 construct: purchased Eurofins DiscoverX (KINOMEscan)
Method: as §1

SRC = molecular target: T36, SRC (Homo sapiens, UniProt P12931)
T36 construct: purchased Eurofins DiscoverX (KINOMEscan)
Method: as §1

SYK = molecular target: T37, SYK (Homo sapiens, UniProt P43405)
T37 construct: purchased Eurofins DiscoverX (KINOMEscan)
Method: as §1

TTK = molecular target: T38, TTK (Homo sapiens, UniProt P33981)
T38 construct: purchased Eurofins DiscoverX (KINOMEscan)
Method: as §1

[3] = molecular target: T39, TYK2(JH1domain-catalytic) (Homo sapiens, UniProt P29597)
T39 construct: TYK2(JH1domain-catalytic); purchased Eurofins DiscoverX (KINOMEscan)
T39 sequence (P29597 871-1187 limits assumed): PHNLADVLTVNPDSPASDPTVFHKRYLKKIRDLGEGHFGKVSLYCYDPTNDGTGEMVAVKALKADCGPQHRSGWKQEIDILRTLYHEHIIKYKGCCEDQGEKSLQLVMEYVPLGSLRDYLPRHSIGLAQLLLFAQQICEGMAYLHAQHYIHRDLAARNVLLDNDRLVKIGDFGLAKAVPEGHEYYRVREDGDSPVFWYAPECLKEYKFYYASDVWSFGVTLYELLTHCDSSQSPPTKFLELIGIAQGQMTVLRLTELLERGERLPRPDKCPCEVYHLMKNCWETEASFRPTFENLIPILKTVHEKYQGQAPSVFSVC
Method: as §1

ULK2 = molecular target: T40, ULK2 (Homo sapiens, UniProt Q8IYT8)
T40 construct: purchased Eurofins DiscoverX (KINOMEscan)
Method: as §1

VEGFR2 = molecular target: T41, VEGFR2 (Homo sapiens, UniProt P35968)
T41 construct: purchased Eurofins DiscoverX (KINOMEscan)
Method: as §1

WNK1 = molecular target: T42, WNK1 (Homo sapiens, UniProt Q9H4A3)
T42 construct: purchased EuroFins DiscoverX (Fremont, CA, USA)
Method: as §1

Brc1ccc2nccc(Nc3ccc4cn[nH]c4c3)c2c1 [Compound 35, 6-Bromo-N-(1H-indazol-6-yl)quinolin-4-amine]
activity at 1 µM [1]: 100% | activity at 1 µM (AKT2): 100% | activity at 1 µM (CAMK1G): 100% | activity at 1 µM (CAMK4): 100% | activity at 1 µM (CDK11): 80% | activity at 1 µM (CDK3): 96% | activity at 1 µM (CLK2): 86% | activity at 1 µM (CLK4): 100% | activity at 1 µM (EGFR(L861Q)): 100% | activity at 1 µM (ERK3): 100% | activity at 1 µM (ERK5): 100% | activity at 1 µM (ERN1): 91% | activity at 1 µM (GSK3B): 97% | activity at 1 µM (IKK-epsilon): 95% | activity at 1 µM (IRAK4): 100% | activity at 1 µM (ITK): 100% | activity at 1 µM [2]: 88% | activity at 1 µM (KIT(A829P)): 100% | activity at 1 µM (KIT(V559D,T670I)): 100% | activity at 1 µM (MAP3K4): 100% | activity at 1 µM (MEK1): 71% | activity at 1 µM (MKNK1): 79% | activity at 1 µM (MYO3B): 100% | activity at 1 µM (PAK1): 85% | activity at 1 µM (PAK6): 100% | activity at 1 µM (PHKG1): 100% | activity at 1 µM (PIK3CA): 100% | activity at 1 µM (PRKCH): 100% | activity at 1 µM (PRKD2): 90% | activity at 1 µM (PRKG1): 100% | activity at 1 µM (PRKR): 100% | activity at 1 µM (RET(M918T)): 100% | activity at 1 µM (RIOK2): 100% | activity at 1 µM (RIPK4): 100% | activity at 1 µM (SNARK): 100% | activity at 1 µM (SRC): 97% | activity at 1 µM (SYK): 89% | activity at 1 µM (TTK): 100% | activity at 1 µM [3]: 100% | activity at 1 µM (ULK2): 94% | activity at 1 µM (VEGFR2): 100% | activity at 1 µM (WNK1): 100%
